ChEMBL document CHEMBL5726339, “Ether compounds for treatment of complement mediated disorders” (2017)

Target: Complement factor D (Homo sapiens, UniProt P00746)
Assay: Enzyme Assay: Human factor D (purified from human serum, Complement Technology, Inc.) at 80 nM final concentration is incubated with test compound at various concentrations for 5 minutes at room temperature in 50 mM Tris, 1M NaCl, pH 7.5. A synthetic substrate Z-L-Lys-SBzl and DTNB (Ellman's reagent) are added to final concentrations of 100 µM each. The increase in color is recorded at OD405 nm in a microplate in kinetic mode over 30 minutes with 30 second time points in a […]. IC50 values are calculated by non-linear regression from the percentage of inhibition of complement factor D activity as a function of test compound concentration.

Chain of Complement factor D (P00746 whole entry): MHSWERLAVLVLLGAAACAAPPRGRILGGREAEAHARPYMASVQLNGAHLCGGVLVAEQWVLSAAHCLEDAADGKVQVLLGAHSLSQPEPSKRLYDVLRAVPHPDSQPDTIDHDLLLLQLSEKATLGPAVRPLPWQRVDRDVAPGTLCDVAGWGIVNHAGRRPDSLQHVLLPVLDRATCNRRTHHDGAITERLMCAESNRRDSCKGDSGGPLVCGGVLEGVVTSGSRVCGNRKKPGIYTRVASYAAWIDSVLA

Question: For `CC(=O)c1cn(CC(=O)N2[C@@H]3C[C@@H]3C[C@H]2C(=O)Nc2cccc(-c3ccccc3Cl)c2F)c2ccc(Oc3ncc(Br)cn3)cc12`, which IC50 is on record?
Answer: The IC50 was under 1 µM.

Question: `CC(=O)c1cn(CC(=O)N2C[C@H](F)C[C@H]2C(=O)Nc2cccc(Br)n2)c2ccc(Oc3ncc(Br)cn3)cc12` was tested. Which IC50 did it give?
Answer: Its IC50 is under 1 µM.
